Source: patent US20090131470A1, “PYRAZOLE-SUBSTITUTED BENZIMIDAZOLE DERIVATIVES FOR USE IN THE TREATMENT OF CANCER AND AUTOIMMUNE DISORDERS” (priority 2005, published 2009)
pIC50: −log10 of the molar value.

Legend:
Type in all cases: biochemical
PDK1 = target: T1, PDK1 (Homo sapiens, UniProt O15530); assay: PDK1 kinase assay (33P peptide phosphorylation); conditions: 0.01 mM ATP, 60 min at 30° C.; read-out: PDK-1 IC50
T1 sequence (O15530 1-556): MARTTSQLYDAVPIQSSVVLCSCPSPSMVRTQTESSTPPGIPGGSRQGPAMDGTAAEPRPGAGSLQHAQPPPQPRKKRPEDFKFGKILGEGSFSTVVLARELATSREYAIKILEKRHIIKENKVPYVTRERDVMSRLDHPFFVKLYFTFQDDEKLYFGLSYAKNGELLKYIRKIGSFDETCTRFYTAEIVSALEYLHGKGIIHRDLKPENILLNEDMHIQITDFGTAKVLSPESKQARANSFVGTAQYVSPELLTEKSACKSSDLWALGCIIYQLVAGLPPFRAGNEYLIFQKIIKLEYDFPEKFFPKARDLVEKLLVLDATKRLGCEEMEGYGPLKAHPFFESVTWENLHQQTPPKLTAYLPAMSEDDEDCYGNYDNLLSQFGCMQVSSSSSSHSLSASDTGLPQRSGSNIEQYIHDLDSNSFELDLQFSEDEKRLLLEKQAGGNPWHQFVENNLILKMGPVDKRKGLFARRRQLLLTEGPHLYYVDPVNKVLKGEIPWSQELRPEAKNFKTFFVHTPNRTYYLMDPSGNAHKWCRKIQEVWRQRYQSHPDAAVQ
Protocol: (§1) The assay mixture containing the inhibitor and PDK1 enzyme was mixed together in a microtiter plate in a final volume of 50 μl and incubated for 60 min at 30° C. The assay mixture contained 0.01 mM unlabeled ATP, 0.01 μCi/μl ^33P-γ-ATP, 0.075 mM peptide, 0.1 mg/ml BSA, 7.5 mM magnesium acetate, 0.05M Tris.HCl, pH 7.5, 0.5% 2-mercaptoethanol. The reaction was stopped by adding 50 μl of 50 mM phosphoric acid. 90 μl of the mixture were transferred to a pre-wetted 96-well Multiscreen MAPHNOB filtration plate (Millipore) and filtered on a vacuum manifold. The filter plate was washed with 3 successive additions of 200 μl 50 mM phosphoric acid and then with 100 μl methanol. The filtration plate was dried for 10 min at 65° C., scintillant added and phosphorylated peptide quantified in a scintillation counter (Trilux, PerkinElmer)

GST-Chk1 enzyme = target: T2, GST-Chk1 enzyme (Homo sapiens, UniProt O14757); assay: Chk1 kinase assay (33P Chktide phosphorylation); conditions: 0.01 mM ATP, 40 minutes at 30° C.; read-out: CHK-1 IC50
T2 sequence (O14757 1-476): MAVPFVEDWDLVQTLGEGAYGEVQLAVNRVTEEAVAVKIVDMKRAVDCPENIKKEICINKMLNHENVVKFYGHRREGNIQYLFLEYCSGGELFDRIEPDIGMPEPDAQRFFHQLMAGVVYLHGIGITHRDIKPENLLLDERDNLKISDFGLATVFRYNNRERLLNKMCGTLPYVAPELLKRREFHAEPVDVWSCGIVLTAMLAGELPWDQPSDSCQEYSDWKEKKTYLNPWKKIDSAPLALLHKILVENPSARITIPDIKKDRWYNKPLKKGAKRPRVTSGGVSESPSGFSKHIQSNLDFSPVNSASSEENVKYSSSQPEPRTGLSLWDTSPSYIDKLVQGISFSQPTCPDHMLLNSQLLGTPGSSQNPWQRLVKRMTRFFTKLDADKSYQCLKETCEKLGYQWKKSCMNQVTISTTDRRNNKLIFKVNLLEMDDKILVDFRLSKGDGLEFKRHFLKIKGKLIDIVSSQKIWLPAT
Protocol: as §1, with “Chk1” for “PDK1”, “40 minutes” for “60 min”, “The assay mixture contained 0.01 mM unlabeled ATP, 0.01 μCi/μl ^33P-γ-ATP, 0.075 mM peptide, 0.1 mg/ml BSA, 7.5 mM magnesium acetate, 0.05M Tris.HCl, pH 7.5, 0.5% 2-mercaptoethanol.” left out, “was” for “were”, “multi-screen” for “Multiscreen”

Akt1 = target: T3, Akt1 (Homo sapiens, UniProt P31749); assay: Akt1 kinase assay (Histone H1 substrate); conditions: 200 μM ATP, read-out: AKT-1 IC50
T3 construct: purchased Upstate
T3 sequence (P31749 whole entry, species assumed): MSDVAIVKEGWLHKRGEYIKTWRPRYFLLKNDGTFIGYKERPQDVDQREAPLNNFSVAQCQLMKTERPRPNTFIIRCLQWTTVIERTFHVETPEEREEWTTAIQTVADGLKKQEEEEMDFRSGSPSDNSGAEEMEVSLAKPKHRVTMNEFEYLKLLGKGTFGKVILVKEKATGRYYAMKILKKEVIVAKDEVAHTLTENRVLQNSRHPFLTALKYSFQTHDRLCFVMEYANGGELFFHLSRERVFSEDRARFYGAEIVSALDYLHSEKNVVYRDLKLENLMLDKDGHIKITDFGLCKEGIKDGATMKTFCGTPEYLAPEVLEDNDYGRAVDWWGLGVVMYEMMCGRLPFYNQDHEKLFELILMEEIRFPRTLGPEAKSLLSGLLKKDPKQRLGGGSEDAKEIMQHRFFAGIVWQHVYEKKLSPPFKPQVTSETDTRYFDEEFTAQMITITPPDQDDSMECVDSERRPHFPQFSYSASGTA
Protocol: (§2) Assays for the cyclin dependent kinase activity were carried out by monitoring the phosphorylation of a synthetic peptide, HATTPKKKRK. The assay mixture containing the inhibitor and CDK-2 enzyme, complexed with cyclin A (0.4 U/ml) was mixed together in a microtiter plate in a final volume of 50 μl and incubated for 40 min at 30° C. The assay mixture contained 0.1 mM unlabeled ATP, 0.01 μCi/μl ^33P-γ-ATP, 0.03 mM peptide, 0.1 mg/ml BSA, 7.5 mM magnesium acetate, 50 mM HEPES-NaOH, pH 7.5. The reaction was stopped by adding 50 μl of 50 mM phosphoric acid. 90 μl of the mixture were transferred to a pre-wetted 96-well Multiscreen MAPHNOB filtration plate (Millipore) and filtered on a vacuum manifold. The filter plate was washed with 3 successive additions of 200 μl 50 mM phosphoric acid and then with 100 μl methanol. The filtration plate was dried for 10 min at 65° C., scintillant added and phosphorylated peptide quantified in a scintillation counter (Trilux, PerkinElmer)
Protocol for the Akt assay is the same for CDK2 except that, 3 nM Akt1 (Upstate) was used with Histone H1 as substrate with a final ATP concentration of 200 μM. The reaction was incubated at 30° C. for 40 minutes.

PKA = target: T4, PKA (Homo sapiens, UniProt P17612); assay: PKA kinase assay (Kemptide substrate); conditions: 100 μM ATP
T4 construct: purchased Upstate
Protocol: as §2, with “The” for “Assays for the cyclin dependent kinase activity were carried out by monitoring the phosphorylation of a synthetic peptide, HATTPKKKRK. The”
The PKA assay was incubated at 30° C. for 30 minutes.

[1] = target: CDK-2 enzyme, complexed with cyclin A (Homo sapiens, UniProt P24941); assay: CDK2 kinase assay (33P peptide phosphorylation); conditions: 0.1 mM ATP, cyclin A complex
Protocol: as §2, with “The” for “Assays for the cyclin dependent kinase activity were carried out by monitoring the phosphorylation of a synthetic peptide, HATTPKKKRK. The”

SMILES	pIC50 (PDK1)	pIC50 (GST-Chk1 enzyme)	pIC50 (Akt1)	pIC50 (PKA)	pIC50 [1]
Cc1[nH]nc(-c2nc3ccccc3[nH]2)c1C(=O)NC1CCNCC1 [Example 1, 3-(1H-Benzoimidazol-2-yl)-5-methyl-1H-pyrazole-4-carboxylic Acid piperidin-4-ylamide]	6.97	7.01	4.77	5.14	5.48
Cc1[nH]nc(-c2nc3cc4ccccc4cc3[nH]2)c1C(=O)NCC1CCNC1 (stereo not shown) [Example 27]	6.84	8.40	< 4.30	5.08	5.20
